In ChEMBL document CHEMBL1130849, “Novel 1,3-disubstituted-5,10-dihydro-5,10-dioxo-1H-benzo[g] isochromene-3 carboxamides as potent antitumor agents” (Bioorg Med Chem Lett, 1998):

What was measured:
SK-OV-3 = assay: Compound was tested for its antitumor activity against SKOV3 human ovarian cancer cell line; assay type: functional, cell-based
HT-29 [1] = assay: Compound was tested for its antitumor activity against HT-29 colon carcinoma cell line; No activity.; assay type: functional, cell-based, Homo sapiens
[2] = Selectivity ratio was determined for P-170 glycoprotein mediated multidrug resistant variant SKVLB to the ovarian cancer cell line SK-OV3.; assay type: functional, Cancer cell lines
HT-29 [3] = assay: Compound was tested for its antitumor activity against HT-29 colon carcinoma cell line; assay type: functional, cell-based; settings: Homo sapiens

Row | Compound | IC50 (SK-OV-3) [nM] | IC50 (HT-29 [1]) | IC50 (HT-29 [3]) [nM] | Ratio [2]
1 | CCCC1OC(C(=O)NCCCN(C)C)=CC2=C1C(=O)c1ccccc1C2=O (centres undefined) | 280 |  | 390 | 2
2 | COc1cccc2c1C(=O)c1c(O)c3c(c(O)c1C2=O)C[C@@](O)(C(=O)CO)C[C@@H]3O[C@H]1C[C@H](N)[C@H](O)[C@H](C)O1 [DOXORUBICIN] | 20 |  | 340 | 300
3 | O=C(NCCCBr)C1=CC2=C(CO1)C(=O)c1ccccc1C2=O | 1060 |  | 2760 | 2.6
4 | COC1OC(C(=O)N(C)CCN(C)C)=CC2=C1C(=O)c1ccccc1C2=O (centres undefined) | 110 |  | 1180 | 5.4
5 | CN(C)CCCNC(=O)C1=CC2=C(CO1)C(=O)c1ccccc1C2=O | 220 | Not Active |  | 5.4
6 | COC1OC(C(=O)NCCCNC(=O)C2=CC3=C(C(=O)c4ccccc4C3=O)C(OC)O2)=CC2=C1C(=O)c1ccccc1C2=O (centres undefined) | 14 |  | 150 | 111
7 | CN(C)CCCNC(=O)C1=CC2=C(C(=O)c3ccccc3C2=O)C(O)O1 (centres undefined) | 3700 |  | 6300 | 6.3
8 | COC1OC(C(=O)NCCCCN(C)C)=CC2=C1C(=O)c1ccccc1C2=O (centres undefined) | 140 | Not Active |  | 4.1

Now from value to compound, other results behind:

Row | IC50 (SK-OV-3) [nM] | IC50 (HT-29 [1]) | IC50 (HT-29 [3]) [nM] | Compound | Ratio [2]
9 | 1300 | Not Active |  | COC1OC(C(=O)NCCC[S+](C)C)=CC2=C1C(=O)c1ccccc1C2=O.[Cl-] (centres undefined) | 13
10 | 7 |  | 70 | COC1OC(C(=O)NCCCN(C)C)=CC2=C1C(=O)c1ccccc1C2=O (centres undefined) | 9.3
11 | 60 |  | 1540 | COC1OC(C(=O)NCCCO)=CC2=C1C(=O)c1ccccc1C2=O (centres undefined) | 6
12 | 19500 |  | 32300 | COC1OC(C(=O)NCC[N+](C)(C)C)=CC2=C1C(=O)c1ccccc1C2=O (centres undefined) | 1.5
13 | 50 |  | 170 | COC1OC(C(=O)NCCN2CCCC2)=CC2=C1C(=O)c1ccccc1C2=O (centres undefined) | 10
